In ChEMBL document CHEMBL1201862, “PubChem BioAssay data set” (2004):
Blank lines part the entries; values can stand above or below the compound they belong to. Active and inactive are the calls of the source.

Assays:
[1] = general mammalian cell viability loss – inhibitor set, cherry-pick, set 2, cytotoxicity control for miR-122 modulator project, dose response (AID 720697); format: functional, cell-based
[2] = tested on: H9c2; test: cells; format: functional, cell-based; conditions: Rattus norvegicus, H9c2, Myocardium;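 note: confirmatory concentration-response retest of ultra-high-throughput screening hits for modulation of myocardial damage; cell death induced by hydrogen peroxide oxidative stress; compound pretreatment for 60 min then peroxide exposure for 2 h; potency is for protecting the cells against peroxide damage rather than for killing them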
[3] = tested on: BJ; test: BJ-TERT-LT-ST fibroblast viability loss – cell-based, RAS-independent, luminescence, dose response (AID 1935); format: functional; conditions: Homo sapiens;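 note: BJ fibroblasts immortalized with TERT plus LT and ST oncogenes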
[4] = tested on: BJ; test: BJ-TERT fibroblast viability loss – cell-based, RAS-independent, luminescence, dose response (AID 1933); format: functional; conditions: Homo sapiens
[5] = tested on: BJ; test: cells; format: functional, cell-based; conditions: Homo sapiens
[6] = DRD fibroblast viability loss – cell-based, non-viral oncogenic, luminescence, dose response (AID 1934); format: functional; conditions: Homo sapiens
[7] = target: Glyceraldehyde-3-phosphate dehydrogenase (Homo sapiens, UniProt P04406)
Glyceraldehyde-3-phosphate dehydrogenase, sequence (P04406 whole entry): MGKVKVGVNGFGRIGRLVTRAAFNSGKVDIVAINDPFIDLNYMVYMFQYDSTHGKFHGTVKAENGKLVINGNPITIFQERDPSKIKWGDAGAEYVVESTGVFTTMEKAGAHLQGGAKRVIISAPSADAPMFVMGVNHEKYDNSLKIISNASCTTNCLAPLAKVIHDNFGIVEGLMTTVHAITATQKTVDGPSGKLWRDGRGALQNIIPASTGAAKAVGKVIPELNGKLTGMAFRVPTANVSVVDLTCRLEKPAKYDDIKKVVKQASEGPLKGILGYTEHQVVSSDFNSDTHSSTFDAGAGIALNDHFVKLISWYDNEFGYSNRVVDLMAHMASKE

[8] = target: T1, Short transient receptor potential channel 4 (Mus musculus, UniProt Q9QUQ5); test: block of DAMGO-driven TRPC4 calcium entry – cell-based, HEK293 TRPC4/mu-opioid, Fluo-4 calcium, dose response (AID 434942); format: functional;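 note: potency of inhibitors blocking the TRPC4 calcium response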
T1 sequence (Q9QUQ5 whole entry): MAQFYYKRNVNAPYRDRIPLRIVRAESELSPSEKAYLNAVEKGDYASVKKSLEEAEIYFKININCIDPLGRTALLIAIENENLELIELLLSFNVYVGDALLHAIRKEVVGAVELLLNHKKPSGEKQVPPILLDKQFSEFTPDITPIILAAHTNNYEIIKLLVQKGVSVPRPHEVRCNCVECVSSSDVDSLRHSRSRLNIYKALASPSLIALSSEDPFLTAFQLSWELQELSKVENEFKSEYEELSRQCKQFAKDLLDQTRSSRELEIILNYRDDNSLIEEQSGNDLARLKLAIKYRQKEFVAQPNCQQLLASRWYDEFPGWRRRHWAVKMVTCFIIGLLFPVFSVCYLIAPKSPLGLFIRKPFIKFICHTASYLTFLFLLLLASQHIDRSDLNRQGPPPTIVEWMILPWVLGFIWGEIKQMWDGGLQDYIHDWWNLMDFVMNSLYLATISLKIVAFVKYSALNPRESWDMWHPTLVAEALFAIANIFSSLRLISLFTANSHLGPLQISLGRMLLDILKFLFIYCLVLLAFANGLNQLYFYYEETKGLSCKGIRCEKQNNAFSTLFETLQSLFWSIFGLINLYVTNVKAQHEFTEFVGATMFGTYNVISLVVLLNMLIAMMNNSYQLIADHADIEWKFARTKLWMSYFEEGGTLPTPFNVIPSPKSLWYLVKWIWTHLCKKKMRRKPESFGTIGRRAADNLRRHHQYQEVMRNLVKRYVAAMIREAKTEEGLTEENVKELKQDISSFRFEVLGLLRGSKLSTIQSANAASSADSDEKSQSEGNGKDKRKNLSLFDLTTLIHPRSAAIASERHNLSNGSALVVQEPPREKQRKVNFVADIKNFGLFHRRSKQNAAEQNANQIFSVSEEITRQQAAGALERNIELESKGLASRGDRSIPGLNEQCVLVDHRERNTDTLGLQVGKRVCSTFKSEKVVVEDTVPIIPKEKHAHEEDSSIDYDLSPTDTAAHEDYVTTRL

[9] = target: T2, Corticotropin-releasing factor receptor 2/Corticotropin-releasing factor-binding protein (Homo sapiens, UniProt P24387+Q13324); test: Dose Response confirmation of uHTS hits for small molecule antagonists of the CRF-binding protein and CRF-R2 receptor complex.; format: functional; conditions: read-out: IC50_Mean
T2 sequence (Q13324 whole entry): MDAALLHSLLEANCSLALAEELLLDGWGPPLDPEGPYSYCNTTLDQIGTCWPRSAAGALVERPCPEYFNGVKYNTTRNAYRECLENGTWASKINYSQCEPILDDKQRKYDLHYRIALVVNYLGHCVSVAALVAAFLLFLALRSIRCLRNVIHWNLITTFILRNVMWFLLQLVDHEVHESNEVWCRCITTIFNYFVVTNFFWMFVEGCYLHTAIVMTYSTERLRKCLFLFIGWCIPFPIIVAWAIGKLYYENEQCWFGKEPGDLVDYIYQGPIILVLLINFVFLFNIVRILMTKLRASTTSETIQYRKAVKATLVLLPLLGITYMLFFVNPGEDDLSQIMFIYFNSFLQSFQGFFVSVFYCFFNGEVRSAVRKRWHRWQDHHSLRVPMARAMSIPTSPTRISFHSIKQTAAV
T2 sequence (P24387 whole entry): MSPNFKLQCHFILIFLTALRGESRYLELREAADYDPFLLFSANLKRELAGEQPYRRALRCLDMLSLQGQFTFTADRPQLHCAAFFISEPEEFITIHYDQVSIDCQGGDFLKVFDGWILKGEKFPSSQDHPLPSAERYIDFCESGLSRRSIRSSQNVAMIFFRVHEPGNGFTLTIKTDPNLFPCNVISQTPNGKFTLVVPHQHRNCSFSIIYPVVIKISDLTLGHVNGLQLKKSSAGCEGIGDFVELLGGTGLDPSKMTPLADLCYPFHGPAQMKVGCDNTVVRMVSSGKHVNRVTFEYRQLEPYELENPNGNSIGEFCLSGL

[10] = target: T2, Corticotropin-releasing factor receptor 2/Corticotropin-releasing factor-binding protein; test: activators of CRF receptor 2 with binding protein – uHTS hits, confirmation (AID 602473); format: functional; conditions: read-out: EC50_Mean
[11] = tested on: HEK293; test: EBV LMP1 TES2 canonical NF-kB signalling blockers – cell-based, HEK293, luciferase, cherry-pick, dose response (AID 588343); format: functional; conditions: Homo sapiens
[12] = target: Cytochrome P450 2C9 (Homo sapiens, UniProt P11712)
Cytochrome P450 2C9, sequence (P11712 whole entry): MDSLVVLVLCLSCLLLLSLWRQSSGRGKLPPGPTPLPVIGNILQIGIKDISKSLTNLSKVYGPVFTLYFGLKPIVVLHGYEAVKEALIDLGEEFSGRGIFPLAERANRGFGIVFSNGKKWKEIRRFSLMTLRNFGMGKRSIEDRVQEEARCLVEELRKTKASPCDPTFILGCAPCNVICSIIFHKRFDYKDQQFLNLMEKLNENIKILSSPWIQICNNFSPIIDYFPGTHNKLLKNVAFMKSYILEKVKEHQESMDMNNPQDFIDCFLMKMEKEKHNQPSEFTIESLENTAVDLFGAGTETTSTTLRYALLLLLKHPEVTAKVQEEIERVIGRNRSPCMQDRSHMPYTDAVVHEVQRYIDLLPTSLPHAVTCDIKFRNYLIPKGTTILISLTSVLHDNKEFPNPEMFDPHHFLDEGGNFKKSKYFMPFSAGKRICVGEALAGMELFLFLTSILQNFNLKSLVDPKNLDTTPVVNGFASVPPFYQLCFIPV

[13] = target: Cytochrome P450 2C19 (Homo sapiens, UniProt P33261); test: Cytochrome panel assay with activity outcomes. Panel member name: p450-cyp2c19 Compounds with AC50 equal or less than 10 uM are considered active; format: functional; conditions: read-out: AC50
Cytochrome P450 2C19, sequence (P33261 whole entry): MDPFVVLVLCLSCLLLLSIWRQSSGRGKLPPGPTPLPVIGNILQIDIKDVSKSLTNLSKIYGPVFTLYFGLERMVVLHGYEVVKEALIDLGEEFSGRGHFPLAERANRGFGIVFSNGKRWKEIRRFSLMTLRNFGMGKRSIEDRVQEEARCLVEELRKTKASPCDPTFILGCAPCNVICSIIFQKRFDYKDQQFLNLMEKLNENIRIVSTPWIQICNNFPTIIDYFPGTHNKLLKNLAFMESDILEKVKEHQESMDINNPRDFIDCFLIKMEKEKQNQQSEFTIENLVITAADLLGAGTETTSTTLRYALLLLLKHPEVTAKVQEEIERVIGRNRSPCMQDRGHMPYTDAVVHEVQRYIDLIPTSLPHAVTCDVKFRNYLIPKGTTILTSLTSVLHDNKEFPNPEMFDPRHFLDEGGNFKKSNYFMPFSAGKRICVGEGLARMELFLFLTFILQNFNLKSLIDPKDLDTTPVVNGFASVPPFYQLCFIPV

[14] = target: Cytochrome P450 2D6 (Homo sapiens, UniProt P10635);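 note: CYP2D6 member of a cytochrome P450 panel assay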
Cytochrome P450 2D6, sequence (P10635 whole entry): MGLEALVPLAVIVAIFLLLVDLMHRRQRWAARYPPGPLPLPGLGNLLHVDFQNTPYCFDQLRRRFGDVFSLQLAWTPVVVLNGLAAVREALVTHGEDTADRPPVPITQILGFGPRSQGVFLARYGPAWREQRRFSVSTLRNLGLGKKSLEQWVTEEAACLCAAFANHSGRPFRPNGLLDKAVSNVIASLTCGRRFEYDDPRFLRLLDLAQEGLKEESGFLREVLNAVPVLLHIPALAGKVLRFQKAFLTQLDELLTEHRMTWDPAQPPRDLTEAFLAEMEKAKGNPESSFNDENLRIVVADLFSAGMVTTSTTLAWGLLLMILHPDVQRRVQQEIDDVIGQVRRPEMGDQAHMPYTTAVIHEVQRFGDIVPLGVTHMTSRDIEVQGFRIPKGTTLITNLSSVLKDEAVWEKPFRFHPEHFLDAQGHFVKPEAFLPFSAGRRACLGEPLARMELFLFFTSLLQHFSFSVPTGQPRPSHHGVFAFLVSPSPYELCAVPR

Structure (SMILES): CCOC(=O)C1CN(S(=O)(=O)c2ccccc2)CCN1S(=O)(=O)c1ccccc1 (configuration not stated)
AC50 [1]: 1.54 µM (active)

Structure (SMILES): CCOc1ccc2nc(NC(=O)CN3CCC(n4nnc5cc(F)ccc54)CC3)sc2c1
IC50 [2]: > 79 µM (inactive)

Structure (SMILES): CCOC(=O)c1ccc(NC(=O)C(=O)NCc2ccco2)cc1
EC50 [3]: > 150 µM (not active)
EC50 [4]: > 150 µM (not active)
EC50 [5]: > 150 µM (not active)
EC50 [6]: > 150 µM (not active)

Structure (SMILES): Cc1ccc(N2C(=O)C(Cl)=C(N3CCN(Cc4ccc5c(c4)OCO5)CC3)C2=O)cc1
IC50 [7]: > 50 µM (inconclusive)

Structure (SMILES): COc1ccccc1/C=C/C(=O)N1CCOCC1
IC50 [9]: > 47.1 µM (inactive)
EC50 [10]: > 53 µM (inactive)

Structure (SMILES): CCc1nnc(NC(=O)CSc2nnnn2-c2cccc(C(C)=O)c2)s1
IC50 [9]: > 47.1 µM (inactive)
EC50 [10]: > 53 µM (inactive)

Structure (SMILES): O=C(CCCc1ccc(N(CCCl)CCCl)cc1)NCc1ccccc1
AC50 [11]: 2.74 µM (active)

Structure (SMILES): CNc1nc(NCC2CCCCC2)c2sccc2n1
AC50 [1]: 3.63 µM (active)

Structure (SMILES): N#CC1(NC(=O)COC(=O)Cn2[nH]c(=O)c3ccccc3c2=O)CCCCC1
IC50 [2]: > 79 µM (inactive)

Structure (SMILES): COC(=O)C[C@@H]1CC[C@H]2[C@@H](COc3ccc(NC(=O)c4ccc(C(F)(F)F)cc4)cc3C(=O)N2C)O1
AC50 [1]: 10 µM (active)

Structure (SMILES): Cc1cccc(NC(=O)Nc2ccc3c(c2)C(=O)N(C)[C@H]2CC[C@H](CC(=O)O)O[C@H]2CO3)c1
AC50 [1]: 10.6 µM (active)

Structure (SMILES): FC(F)(F)c1cc(C(F)(F)F)c2ccc(N/N=C/c3cccc(Cl)c3)nc2n1
AC50 [12]: inconclusive
AC50 [13]: 17.8 µM (inconclusive)

Continued, values first:

EC50 [8]: 2.66 µM (active)
Structure (SMILES): CCN(CC)c1nc2ccccc2c(N)c1-c1ccccc1

EC50 [8]: 4.73 µM (active)
Structure (SMILES): CCOc1ccc2ccccc2c1CNCCc1ccc(S(N)(=O)=O)cc1

IC50 [9]: > 47.1 µM (inactive)
EC50 [10]: > 53 µM (inactive)
Structure (SMILES): CCCC1CC(C#N)N(N(C)C)C1=C(C#N)C#N (configuration not stated)

IC50 [9]: > 47.1 µM (inactive)
EC50 [10]: > 53 µM (inactive)
Structure (SMILES): Cc1ccc(NC(=O)c2ncn(CCCNCC3CCCO3)n2)cc1C (configuration not stated)

AC50 [12]: inconclusive
AC50 [14]: 12.6 µM (inconclusive)
AC50 [13]: 25.1 µM (inconclusive)
Structure (SMILES): COc1cccc(C(=O)NNC2=CC(=O)CC(C)(C)C2)c1
